Reference: patent US20120164230A1, “Soluble Nanoparticles as Delivery Systems for Prodrugs” (priority 2007, published 2012)

How the values were obtained:
NTera-2 cells [1] = assay: MTT cell proliferation / cytotoxicity assay; assay type: cell-based, human
Experimental: In order to evaluate the feasibility of this method for delivering a toxic dose of platinum, cytotoxicity assays of SWNT-Pt(IV) were conducted using the testicular carcinoma cell line NTera-2. Example 3 below describes these experiments, in which the MTT assay was used to determine cell viability following treatment for four days with either the free platinum(IV) complex 2 or with the SWNT-tethered analog (FIG. 2). Compared to cis-[Pt(NH3)2Cl2] (IC50=0.05 μM) the cytotoxicity of the asymmetrically substituted platinum(IV) compound 2 is insignificant (IC50>>0.5 mM). […] Without wishing to be bound to any particular theory, it is thought that this increase is due to the two-fold increase in uptake of Pt relative to free cisplatin.
Cell Culture. Cells from the human testicular cancer line NTera-2 were incubated at 37° C. in 5% CO2 and grown in DMEM (Dulbecco's Modified Eagle's Medium) medium supplemented with 10% fetal bovine serum and 1% penicillin/streptomycin. Cells were passaged every 3 to 4 days and reseeded from frozen stocks after reaching passage number 20.
Cell Proliferation Assay. Ntera-2cells were seeded into 96 well plates at a confluence of 1000 cells per well and incubated for 24 h. The cells were then treated with either cisplatin, compound 1, compound 2, or SWNT-Pt(IV) and incubated for 96 h. The cells were then treated with 20 μL of 3-(4,5-dimethylthiazol-2-yl)-2,5-diphenyltetrazolium bromide (MTT) (5 mg/mL in PBS) and incubated for 5 h. The medium was removed, the cells were lysed with 100 μL of DMSO, and the absorbance of the purple formazan was recorded at 550 nm. The results are presented in FIG. 2, FIG. 7, FIG. 8, and FIG. 9. […] (cisplatin).

NTera-2 cells [2] = assay: Platinum concentration of cell extracts (cytosolic and nuclear fractions) by AAS; assay type: cell-based, human; conditions: 1 μM platinum, 3 h incubation
Experimental: In order to investigate the mechanism by which the SWNTs transport Pt(IV) compounds into cells and release them once inside we devised a strategy to track their intracellular location.
Cell Extract Preparation and Analysis. NTera-2 cells were grown to >90% confluence in 175 cm^2 flasks. These cells were treated separately with 1 μM concentrations of cisplatin, c,c,t-[Pt(NH3)2Cl2(OEt)(O2CCH2CH2CO2H)], and SWNT-Pt(IV) and subsequently incubated for three h at 37° C. The cells were washed thrice with PBS and released by trypsinization into PBS. The cell solutions were centrifuged at 800×g for 10 min and the cell pellets resuspended in 100 μL of ice-cold lysis buffer (1.0 mM DTT (dithiothreitol), 1.0 mM PMSF (phenylmethanesulphonylfluoride), 10 mM KCl, 10 mM MgCl2, pH 7.5) for 15 min. The cells were centrifuged again and the pellets resuspended in 40 μL of ice-cold lysis buffer. The cell membranes were lysed by 10 strokes of a 28 ga. syringe. The resulting suspension was centrifuged at 11,000×g for 20 min and the supernatant was collected as the cytosolic fraction of the cells. […] The lysate was shaken at 1000 rpm for 45 min at […] and then centrifuged at 20,000×g for 10 min at 4° C. The supernatant was collected as the nuclear fraction. The platinum concentration of all fractions was determined by AAS. The protein concentration for each fraction was determined by the bicinchoninic acid (BCA) assay and the total platinum concentration was expressed as nanograms of platinum per microgram of protein (Table 1).

[3] = Cyclic voltammetry, reduction potential; assay type: physicochemical; conditions: vs Ag/AgCl; for reduction potential (reduction peak) extrapolated to 0.0 mV s^-1 scan rate: pH 6.0, 0.1 M KCl phosphate buffer; for reduction potential extrapolated to 0.0 mV s^-1 scan rate: pH 7.4, 0.1 M KCl phosphate buffer
Experimental: Each platinum complex was dissolved to a final concentration of 2.0 mM in 0.1 M aqueous KCl buffered with phosphate to either pH 6.0 or 7.4. Cyclic voltammetric (CV) measurements were performed with a model 263 EG&G Princeton Applied Research electrochemical analyzer at varying scan rates of 20-100 mV s^−1. The solvent was degassed by several freeze-pump-thaw cycles and measurements were taken under an atmosphere of argon. The working electrode was made of glassy carbon, the reference electrode was Ag/AgCl, and the counter electrode was a platinum wire. Reported potentials are extrapolated to 0.0 mV s^−1 scan rates to account for the irreversible behavior of the reduction processes.^7

Q: For cis-[Pt(NH3)2Cl2] [reference compound], which IC50 (NTera-2 cells [1]) is on record?
A: The IC50 was 50 nM.

Q: And the “cytotoxicity (in words)” value (NTera-2 cells [1])?
A: Its value is “significantly more toxic”.

Q: What about the “Platinum concentration of cell extracts, Cytosolic” value (NTera-2 cells [2]) of the same molecule?
A: The value was 11 Pt(ng)/protein(mg).

Q: And the “Platinum concentration of cell extracts, Nuclear” value (NTera-2 cells [2])?
A: The value was 14 Pt(ng)/protein(mg).

Q: Which IC50 (NTera-2 cells [1]) does the source give for CC[O][Pt]([NH2])([NH2])([Cl])([Cl])[O]C(=O)CCC(=O)O [Compound 2, c,c,t-[Pt(NH3)2Cl2(OEt)(O2CCH2CH2CO2H)]] here?
A: Its IC50 is over 500 nM.

Q: And the “cytotoxicity (in words)” value (NTera-2 cells [1])?
A: The value was “nearly nontoxic”.

Q: And the “Platinum concentration of cell extracts, Cytosolic” value (NTera-2 cells [2])?
A: The value was 3 Pt(ng)/protein(mg).

Q: And the “Platinum concentration of cell extracts, Nuclear” value (NTera-2 cells [2])?
A: The value was 6 Pt(ng)/protein(mg).

Q: What about the “reduction potential (reduction peak) extrapolated to 0.0 mV s^-1 scan rate” value [3] of the same molecule?
A: Its value is −0.623 V.

Q: And the “reduction potential extrapolated to 0.0 mV s^-1 scan rate” value [3]?
A: Its value is −0.724 V.

Q: For CC[O][Pt]([NH2])([NH2])([OH])([Cl])[Cl] [Compound 1, c,c,t-[Pt(NH3)2Cl2(OH)(OEt)]], which “cytotoxicity (in words)” value (NTera-2 cells [1]) is on record?
A: Its value is “only toxic to cells in micromolar concentrations”.

Q: And the “reduction potential (reduction peak) extrapolated to 0.0 mV s^-1 scan rate” value [3]?
A: The value was −0.499 V.

Q: What about the “reduction potential extrapolated to 0.0 mV s^-1 scan rate” value [3] of the same molecule?
A: The value was −0.604 V.
